Values quoted from earlier work in patent US20150133409A1, “TOPICAL OPHTHALMIC, OTIC, AND NASAL COMPOSITIONS OF CIPROFLOXACIN” (priority 2013, published 2015).
Read-outs that look alike come from different tables or passages of the source.

Settings: aqueous 0.2 to 1 weight percent ciprofloxacin

pH at which crystalline precipitation of ciprofloxacin occurs (5° C.): above 5
pH at which crystalline precipitation of ciprofloxacin occurs (room temperature): above 5.5
SMILES: O=C(O)c1cn(C2CC2)c2cc(N3CCNCC3)c(F)cc2c1=O [ciprofloxacin]
